Results reported in patent US4555513A, “1,2 Dihydro- and 1,2,3,4-tetrahydro quinolylacetic acids and analgesic use thereof” (priority 1982, dated 1985).
Like-named read-outs stand apart in the source and are kept apart here.

How the values were obtained:
[1] = Acute toxicity (oral, mortality after 72 hours); details: mouse, in vivo
Method: Groups of 10 male dd mice weighing some 18 g were orally administered the examined drugs and the number of death p 72 hours later was recorded.

dd mice [2] = assay: Analgesic effects by a modified Haffner method; format: in vivo, mouse (dd mice); details: with morphine hydrochloride 2 mg/kg s.c.
Method: Group of 10 dd mice were orally administered the examined drugs and 30 minutes later 2 mg/kg of morphine hydrochloride, the threshold dose, was injected subcutaneously. At 15, 30, 45 and 60 minutes thereafter, the root of mouse's tail was squeezed with a Kocher's forceps.

dd mice [3] = assay: Analgesic effects by acetic acid writhing test; format: in vivo, mouse (male dd mice)
Method: 30 minutes after the examined drug was orally given, 0.1 ml/10 g of 0.6% acetic acid solution was intraperitoneally administered to group of 10 male dd mice weighing some 18 g. The number of stretching was calculted during an observation period of 15 to 20 minutes after acetic acid treatment. The average inhibition rate of stretching among 8 animals was regarded as the inhibition rate of the drug, excluding 2 animals showing maximum and minimum numbers of stretching.

[4] = 800 mg/kg oral, 72 hours, read-out: Mortality
[5] = 400 mg/kg oral, 72 hours, read-out: Mortality

SMILES	mortality at 72 h [1, 4] [%]	Analgesic effects (dd mice [2]; 100 mg/kg oral) [%]	Analgesic effects (dd mice [2]; 200 mg/kg oral) [%]	Analgesic effects (inhibition rate of stretching) (dd mice [3]; 50 mg/kg oral) [%]	Analgesic effects (inhibition rate of stretching) (dd mice [3]; 100 mg/kg oral) [%]	Analgesic effects (inhibition rate of stretching) (dd mice [3]; 150 mg/kg oral) [%]	mortality at 72 h [1, 5] [%]	mortality at 72 h ([1]; po, 600 mg/kg) [%]
Cc1c(N(C)C)c(=O)n(-c2ccccc2)n1C [Aminopyrine, reference compound]	100	30	35	14	47	60	–	–
CC(C(=O)O)c1cc(Cl)c2c(c1)C=CC(C)(C)N2 (stereo not drawn) [Compound 35, 2-(8-Chloro-1,2-dihydro-2,2-dimethylquinolin-6-yl)propionic acid]	20	35	50	37	52	68	0	–
CC(C(=O)O)c1cc(Cl)c2c(c1)CCC(C)(C)N2 (stereo not drawn) [Compound 36, 2-(8-Chloro-1,2,3,4-tetrahydro-2,2-dimethylquinolin-6-yl)propionic acid]	10	30	55	36	61	73	0	–
CCCCC1C(=O)N(c2ccccc2)N(c2ccccc2)C1=O [Phenylbutazone, reference compound]	–	–	–	–	–	–	–	100
